Each structure is given as a SMILES string. Like-named read-outs stand apart in the source and are kept apart here.

For one assay, the target named is T1, Human αvβ3 (Homo sapiens, UniProt P05106+P06756).
T1 construct: purchased Chemicon International Inc., Temecula, Calif
As to the kind of experiment: In vitro solid phase purified αvβ3 binding assay (vitronectin/αvβ3). The method in brief:
(§1)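 αvβ3 (1 μg/ml) immobilised in Tris buffer with Ca2+/Mg2+/Mn2+, compounds added 5 min before 5 nM vitronectin, 3 h at 37 °C; bound vitronectin detected by anti-vitronectin antibody/peroxidase ELISA at 490 nm. GPIIb/IIIa coated overnight at 4 °C, biotinylated fibrinogen with compounds 2–4 h RT in modified Tyrodes buffer, avidin-HRP/o-phenylenediamine read at 490 nm.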

A further assay has as its target GPIIb/IIIa (Homo sapiens, UniProt P05106+P08514). As to the kind of experiment: In vitro solid phase purified glycoprotein IIb/IIIa binding assay (biotinylated fibrinogen). The method in brief:
as §1

Setting [1] is: isolated human αvβ3, 5 nM vitronectin, read-out: αvβ3 Binding IC50.
Setting [2] is: RGD-affinity purified GPIIb/IIIa, biotinylated fibrinogen, read-out: GPIIb/IIIa Binding IC50.

GPIIb/IIIa, sequence (P08514 32-887 limits assumed): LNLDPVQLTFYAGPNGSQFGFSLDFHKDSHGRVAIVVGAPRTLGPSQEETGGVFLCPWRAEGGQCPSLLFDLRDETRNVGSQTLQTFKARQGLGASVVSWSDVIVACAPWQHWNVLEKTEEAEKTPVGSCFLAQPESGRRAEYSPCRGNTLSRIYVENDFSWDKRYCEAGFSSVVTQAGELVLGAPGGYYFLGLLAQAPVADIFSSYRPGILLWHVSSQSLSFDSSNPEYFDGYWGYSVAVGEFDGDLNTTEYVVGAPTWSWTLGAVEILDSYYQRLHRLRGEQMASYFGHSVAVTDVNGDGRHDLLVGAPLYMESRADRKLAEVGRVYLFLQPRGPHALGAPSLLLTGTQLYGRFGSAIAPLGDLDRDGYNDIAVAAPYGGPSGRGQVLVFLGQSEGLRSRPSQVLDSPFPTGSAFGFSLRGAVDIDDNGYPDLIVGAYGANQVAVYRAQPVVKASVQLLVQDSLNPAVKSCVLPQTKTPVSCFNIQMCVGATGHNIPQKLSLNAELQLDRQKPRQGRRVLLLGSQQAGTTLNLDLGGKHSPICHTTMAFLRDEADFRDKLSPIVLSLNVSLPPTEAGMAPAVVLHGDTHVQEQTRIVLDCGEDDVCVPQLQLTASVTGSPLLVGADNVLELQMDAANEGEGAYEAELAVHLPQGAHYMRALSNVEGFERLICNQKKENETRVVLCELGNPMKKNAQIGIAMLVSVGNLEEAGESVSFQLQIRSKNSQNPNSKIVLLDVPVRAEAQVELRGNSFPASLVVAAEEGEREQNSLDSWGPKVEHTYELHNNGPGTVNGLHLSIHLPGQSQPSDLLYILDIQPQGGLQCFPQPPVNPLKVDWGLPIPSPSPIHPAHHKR
GPIIb/IIIa, sequence (P08514 891-1039 partner limits assumed): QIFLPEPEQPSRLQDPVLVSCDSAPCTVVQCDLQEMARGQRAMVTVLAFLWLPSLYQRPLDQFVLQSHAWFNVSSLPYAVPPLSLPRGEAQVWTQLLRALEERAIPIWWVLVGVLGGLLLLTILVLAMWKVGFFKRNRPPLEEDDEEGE
GPIIb/IIIa, sequence (P05106 27-788): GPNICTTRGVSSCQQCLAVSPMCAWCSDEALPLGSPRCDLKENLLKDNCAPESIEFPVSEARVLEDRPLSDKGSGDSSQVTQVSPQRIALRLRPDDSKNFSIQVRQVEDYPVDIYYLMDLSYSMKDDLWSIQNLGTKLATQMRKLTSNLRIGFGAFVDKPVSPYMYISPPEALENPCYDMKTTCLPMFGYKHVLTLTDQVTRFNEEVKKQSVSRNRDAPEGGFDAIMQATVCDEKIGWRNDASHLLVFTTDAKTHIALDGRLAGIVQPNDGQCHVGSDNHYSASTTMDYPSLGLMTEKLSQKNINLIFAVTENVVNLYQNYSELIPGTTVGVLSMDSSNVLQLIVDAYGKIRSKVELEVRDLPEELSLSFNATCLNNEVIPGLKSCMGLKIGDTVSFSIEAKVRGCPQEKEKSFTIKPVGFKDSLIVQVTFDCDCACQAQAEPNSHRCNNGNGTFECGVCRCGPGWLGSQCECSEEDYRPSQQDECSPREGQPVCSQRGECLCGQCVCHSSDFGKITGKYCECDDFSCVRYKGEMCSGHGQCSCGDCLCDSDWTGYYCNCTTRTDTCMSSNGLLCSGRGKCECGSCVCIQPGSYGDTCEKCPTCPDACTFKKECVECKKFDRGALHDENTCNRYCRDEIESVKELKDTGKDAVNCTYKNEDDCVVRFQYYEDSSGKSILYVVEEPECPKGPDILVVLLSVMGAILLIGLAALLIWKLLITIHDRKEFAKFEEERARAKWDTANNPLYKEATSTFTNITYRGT
T1 sequence (P06756 31-889 limits assumed): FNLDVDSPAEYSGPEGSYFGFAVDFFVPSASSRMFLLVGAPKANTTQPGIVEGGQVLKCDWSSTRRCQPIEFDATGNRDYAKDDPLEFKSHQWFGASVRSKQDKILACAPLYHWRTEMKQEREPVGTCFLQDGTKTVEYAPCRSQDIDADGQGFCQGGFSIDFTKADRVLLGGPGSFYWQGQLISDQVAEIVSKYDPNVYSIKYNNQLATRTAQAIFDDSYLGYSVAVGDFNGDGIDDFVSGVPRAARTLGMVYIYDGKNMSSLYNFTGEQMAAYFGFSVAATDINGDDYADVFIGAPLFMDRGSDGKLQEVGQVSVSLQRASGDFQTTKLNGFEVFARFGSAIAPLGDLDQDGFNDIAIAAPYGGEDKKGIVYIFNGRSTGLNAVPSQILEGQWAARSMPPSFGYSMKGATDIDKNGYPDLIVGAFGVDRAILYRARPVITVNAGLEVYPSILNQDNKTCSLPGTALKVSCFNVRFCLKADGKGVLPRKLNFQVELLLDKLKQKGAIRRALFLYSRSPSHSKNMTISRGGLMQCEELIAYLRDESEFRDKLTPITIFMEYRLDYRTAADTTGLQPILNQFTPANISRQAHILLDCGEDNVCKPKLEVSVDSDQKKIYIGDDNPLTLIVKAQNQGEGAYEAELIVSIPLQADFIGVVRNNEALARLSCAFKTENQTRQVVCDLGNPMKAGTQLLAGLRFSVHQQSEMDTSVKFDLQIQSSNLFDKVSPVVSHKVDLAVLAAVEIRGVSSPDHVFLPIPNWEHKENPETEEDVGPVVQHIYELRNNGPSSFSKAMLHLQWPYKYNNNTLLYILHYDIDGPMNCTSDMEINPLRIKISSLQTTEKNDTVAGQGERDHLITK
T1 sequence (P06756 891-1048 partner limits assumed): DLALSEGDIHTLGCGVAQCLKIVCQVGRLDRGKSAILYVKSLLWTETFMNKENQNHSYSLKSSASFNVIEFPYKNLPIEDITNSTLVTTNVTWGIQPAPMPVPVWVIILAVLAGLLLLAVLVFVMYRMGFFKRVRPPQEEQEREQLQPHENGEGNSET
T1 sequence (P05106 27-788): as the sequence (P05106 27-788) above

For the compound `COc1ccc(S(=O)(=O)N[C@@H](Cc2nc3ccc(/C=C/CNC(=O)NCc4ccccc4)cc3c(=O)[nH]2)C(=O)O)cc1OC` [Compound 54, α-[[(3,4-dimethoxyphenyl)sulfonyl]amino]-(αS)-3,4-dihydro-4-oxo-6-[(1E)-3-[[[(phenylmethyl)amino]carbonyl]amino]-1-propenyl]-2-quinazolinepropanoic acid], the IC50 was 38 nM at Human αvβ3 (setting [1]) and 5000 nM on GPIIb/IIIa (setting [2]).
On to `COc1ccc(S(=O)(=O)N[C@@H](Cc2nc3ccc(/C=C/CNC4=NCCC4)cc3c(=O)[nH]2)C(=O)O)cc1OC` [Compound 55, 6-[(1E)-3-[(3,4-dihydro-2H-pyrrol-5-yl)amino]-1-propenyl]-α-[[(3,4-dimethoxyphenyl)sulfonyl]amino]-(αS)-3,4-dihydro-4-oxo-2-quinazolinepropanoic acid], for which the IC50 turned out to be 42 nM at Human αvβ3 (setting [1]) and 270 nM on GPIIb/IIIa (setting [2]).
For `COc1cc(C)c(S(=O)(=O)N[C@@H](Cc2nc3ccc(/C=C/CNC(=O)NCc4ccccc4)cc3c(=O)[nH]2)C(=O)O)c(C)c1C` [Compound 56, (αS)-3,4-dihydro-α-[[(4-methoxy-2,3,6-trimethylphenyl)sulfonyl]amino]-4-oxo-6-[(1E)-3-[[[(phenylmethyl)amino]carbonyl]amino]-1-propenyl]-2-quinazolinepropanoic acid], the IC50 on Human αvβ3 (setting [1]) was 32 nM; at GPIIb/IIIa (setting [2]), 3900 nM.
The corresponding values for `COc1ccc(S(=O)(=O)N[C@@H](Cc2nc3ccc(/C=C/CNC(=O)NCc4ccccc4)cc3c(=O)[nH]2)C(=O)O)cc1` [Compound 57, (αS)-3,4-dihydro-α-[[(4-methoxyphenyl)sulfonyl]amino]-4-oxo-6-[(1E)-3-[[[(phenylmethyl)amino]carbonyl]amino]-1-propenyl]-2-quinazolinepropanoic acid] are 43 nM and 3700 nM.
On the same counts, the results for `Cc1c(C)c(C)c(S(=O)(=O)N[C@@H](Cc2nc3ccc(/C=C/CNC(=O)NC(C)C)cc3c(=O)[nH]2)C(=O)O)c(C)c1C` [Compound 58, (αS)-3,4-dihydro-6-[(1E)-3-[[[(1-methylethyl)amino]carbonyl]amino]-1-propenyl]-4-oxo-α-[[(2,3,4,5,6-pentamethylphenyl)sulfonyl]amino]-2-quinazolinepropanoic acid] are 44 nM and 2500 nM.
For `CNC(=O)NC/C=C/c1ccc2nc(C[C@H](NS(=O)(=O)c3c(C)c(C)c(C)c(C)c3C)C(=O)O)[nH]c(=O)c2c1` [Compound 59, (αS)-3,4-dihydro-6-[(1E)-3-[[(methylamino)carbonyl]amino]-1-propenyl]-4-oxo-α-[[(2,3,4,5,6-pentamethylphenyl)sulfonyl]amino]-2-quinazolinepropanoic acid], the IC50 at Human αvβ3 (setting [1]) is 59 nM; at GPIIb/IIIa (setting [2]), 3900 nM.
On the same counts, the results for `COc1ccc(S(=O)(=O)N[C@@H](Cc2nc3ccc(/C=C/CNC4=NCCCC4)cc3c(=O)[nH]2)C(=O)O)cc1OC` [Compound 60, α-[[(3,4-dimethoxyphenyl)sulfonyl]amino]-(αS)-3,4-dihydro-4-oxo-6-[(1E)-3-[(3,4,5,6-tetrahydro-2-pyridinyl)amino]-1-propenyl]-2-quinazolinepropanoic acid] are 58 nM and 620 nM.
As for `Cc1c(C)c(C)c(S(=O)(=O)N[C@@H](Cc2nc3ccc(/C=C/CNc4nc5ccccc5c(=O)[nH]4)cc3c(=O)[nH]2)C(=O)O)c(C)c1C` [Compound 61, 6-[(1E)-3-[(3,4-dihydro-4-oxo-2-quinazolinyl)amino]-1-propenyl]-(αS)-3,4-dihydro-4-oxo-α-[[(2,3,4,5,6-pentamethylphenyl)sulfonyl]amino]-2-quinazolinepropanoic acid], the IC50 is 69 nM at Human αvβ3 (setting [1]) and 12000 nM at GPIIb/IIIa (setting [2]).
The corresponding values for `Cc1cc(C)c(S(=O)(=O)N[C@@H](Cc2nc3ccc(/C=C/CNC(=O)NCc4ccccc4)cc3c(=O)[nH]2)C(=O)O)c(C)c1` [Compound 62, (αS)-3,4-dihydro-4-oxo-6-[(1E)-3-[[[(phenylmethyl)amino]carbonyl]amino]-1-propenyl]-α-[[(2,4,6-trimethylphenyl)sulfonyl]amino]-2-quinazolinepropanoic acid] are 79 nM and 4100 nM.
As for `COc1ccc(OC(=O)N[C@@H](Cc2nc3ccc(/C=C/CNC4=NCCN4)cc3c(=O)[nH]2)C(=O)O)cc1` [Compound 63, 6-[(1E)-3-[(4,5-dihydro-1H-imidazol-2-yl)amino]-1-propenyl]-(αS)-3,4-dihydro-α-[[(4-methoxyphenoxy)carbonyl]amino]-4-oxo-2-quinazolinepropanoic acid], the IC50 is 100 nM at Human αvβ3 and 950 nM on GPIIb/IIIa.
Take `C=C(CNC(=O)NC(C)C)c1ccc2nc(C[C@H](NS(=O)(=O)c3c(C)c(C)c(C)c(C)c3C)C(=O)O)[nH]c(=O)c2c1` [Compound 64, (αS)-3,4-dihydro-6-[1-[[[[(1-methylethyl)amino]carbonyl]amino]methyl]ethenyl]-4-oxo-α-[[(2,3,4,5,6-pentamethylphenyl)sulfonyl]amino]-2-quinazolinepropanoic acid]: the figures for the IC50 on Human αvβ3 (setting [1]) and at GPIIb/IIIa (setting [2]) were 150 nM and 1100 nM, respectively.
On the same counts, the results for `Cc1nn(C)c(Cl)c1S(=O)(=O)N[C@@H](Cc1nc2ccc(/C=C/CNC(=O)NCc3ccccc3)cc2c(=O)[nH]1)C(=O)O` [Compound 65, α-[[(5-chloro-1,3-dimethyl-1H-pyrazol-4-yl)sulfonyl]amino]-(αS)-3,4-dihydro-4-oxo-6-[(1E)-3-[[[(phenylmethyl)amino]carbonyl]amino]-1-propenyl]-2-quinazolinepropanoic acid] are 160 nM and 4100 nM.
In the case of `Cc1c(C)c(C)c(S(=O)(=O)N[C@@H](Cc2nc3ccc(/C=C/CNC(=O)NC4C[C@H]4c4ccccc4)cc3c(=O)[nH]2)C(=O)O)c(C)c1C` (stereo partly drawn) [Compound 66, (αS)-3,4-dihydro-4-oxo-α-[[(2,3,4,5,6-pentamethylphenyl)sulfonyl]amino]-6-[(1E)-3-[[[[(2S)-2-phenylcyclopropyl]amino]carbonyl]amino]-1-propenyl]-2-quinazolinepropanoic acid], the IC50 amounted to 210 nM at Human αvβ3 (setting [1]) and 780 nM on GPIIb/IIIa (setting [2]).
Regarding `O=C(N[C@@H](Cc1nc2ccc(/C=C/CNC3=NCCC3)cc2c(=O)[nH]1)C(=O)O)OCc1ccccc1` [Compound 67, 6-[(1E)-3-[(3,4-dihydro-2H-pyrrol-5-yl)amino]-1-propenyl]-(αS)-3,4-dihydro-4-oxo-α-[[(phenylmethoxy)carbonyl]amino]-2-quinazolinepropanoic acid], the IC50 on Human αvβ3 (setting [1]) came to 420 nM; at GPIIb/IIIa (setting [2]) it was 580 nM.
As to `COc1ccc(S(=O)(=O)N[C@@H](Cc2nc3ccc(/C=C/CNC4=NCCCCCC4)cc3c(=O)[nH]2)C(=O)O)cc1OC` [Compound 68, α-[[(3,4-dimethoxyphenyl)sulfonyl]amino]-6-[(1E)-3-[(3,4,5,6,7,8-hexahydro-2-azocinyl)amino]-1-propenyl]-(αS)-3,4-dihydro-4-oxo-2-quinazolinepropanoic acid], the IC50 came out at 440 nM on Human αvβ3 (setting [1]) and 230 nM at GPIIb/IIIa (setting [2]).
For `Cc1ccnc(NC/C=C/c2ccc3nc(C[C@H](NC(=O)OCc4ccccc4)C(=O)O)[nH]c(=O)c3c2)c1` [Compound 69, (αS)-3,4-dihydro-6-[(1E)-3-[(4-methyl-2-pyridinyl)amino]-1-propenyl]-4-oxo-α-[[(phenylmethoxy)carbonyl]amino]-2-quinazolinepropanoic acid], the IC50 turned out to be 490 nM on Human αvβ3 (setting [1]) and 18000 nM at GPIIb/IIIa (setting [2]).
